“And” between values parts separate entries of the source, which are not always exact repeats. Equal values may be shown once. Read-outs that look alike come from different tables or passages of the source.
Key:
[1] = test system: HCV Replicon (HCV IRES driven luciferase reporter) in Huh-Luc-Neo cells; test: HCV Replicon Luciferase Assay; assay type: cell-based; settings: 48 h, Huh-Luc-Neo cells, no unit printed in table (b301 gives IC50s in μM), read-out: Luciferase IC50
Description: (§1) The identification of inhibitors of HCV replication and/or proliferation has been facilitated by the development of a cell based system to study HCV replication and assay for HCV inhibitors. Inhibition of HCV replication may be performed using the HCV Replicon Assay developed in the laboratories of Bartenschlager (Lohman et al, Science 285, 110-113, 1999) and Rice (Blight et al, Science 290, 1972-1974, 2000). The assay is performed using the Huh-Luc-Neo cell line (Lohman et al, Science 285, 110-113, 1999). Huh-Luc-Neo cells are a human hepatoma cell line (Huh-7) stably expressing a bi-cistronic subgenomic replicon containing the HCV IRES in which the […] of HCV had been deleted and replaced by a construct containing sequences coding for the firefly luciferase reporter gene, the neomycin selectable marker and the EMCV IRES to direct expression of a truncated HCV genome expressing the […] NS3, NS4A, NS4B, NS5A, and NS5B. HCV targets through which inhibitors could act to inhibit replication include the NS3 protease, the helicase/ATPase, NS5A, the NS5B-RNA dependent RNA polymerase, and the HCV IRES.
(§2) Expression of HCV IRES driven luciferase reporter activity and HCV RNA is measured to obtain indirect and direct measures of replication of HCV RNA respectively. Inhibitors of HCV replication and/or proliferation are determined by initially identifying molecules that inhibit expression of the HCV IRES driven luciferase reporter in this HCV Replicon Luciferase Assay. Cell viability assays and control cell based luciferase assays are then run on hits identified in the HCV Replicon Luciferase Assay to eliminate cytoxic compounds and non-specific compounds which act by inhibiting the luciferase enzyme.
(§3) Day 0, Cell Seeding and Compound Treatment: Huh-Luc-Neo Cells are seeded at 25,000/well in an opaque-walled 96 plate with Growth Medium (DMEM phenol red free+PS+2 mM glutamine; 100 μl/well). The compounds to be tested are added to the experimental wells (10 μl/well at 10× assay concentration) and the cells are then incubated (5% CO2, 37° C.) for 48 h.
(§4) Day 2, Reagent Preparation and Luciferase Assay: The Bright-Glo Luciferase Assay Buffer (Promega) is thawed and equilibrated to room temperature prior to use. The lyophilized Bright-Glo Luciferase Assay Substrate is equilibrated to room temperature prior to use. 10 ml of Bright-Glo Luciferase Assay Buffer is transferred to 1 vial of Bright-Glo Luciferase Assay Substrate bottle and mixed by gently with a Vortex. 100 ul of Bright-Glo Luciferase Assay reagent (Bright-Glo Luciferase Assay Buffer+Bright-Glo Luciferase Assay Substrate Mixture) is added to each well. The well contents are mixed for 5 min. on an orbital shaker at room temperature to induce cell lysis and the luminescence is then measured using a luminometer. The data is analyzed and IC50s are determined using GraphPad Prism 4 software. Hits validated in the Replicon Luciferase assay have IC50s<8.0 μM and show <30% inhibition of Cell Viability at a compound concentration of 100 μM (Cell Titer Glow Assay, cell viability assay conditions identical to HCV Replicon Luciferase Assay conditions).

[2] = test system: HCV RNA (HCV Replicon) in Huh-Luc-Neo cells; test: HCV Replicon RNA Assay (Taqman quantitative PCR); assay type: cell-based; settings: 2 compound treatments over 48 h, no unit printed in table (b307 gives IC50s in μM)
Description: as §1, §2
as §3, with “C.).” for “C.) for 48 h.”
Day 1, Media Change and Compound Treatment: 24 hours after the initial compound treatment the cell culture media is aspirated from the wells and fresh Growth Medium is added (DMEM phenol red free+PS+2 mM glutamine; 100 μl/well). The compounds to be tested are then added to the appropriate experimental wells (10 μl/well at 10× assay concentration) and the cells are then incubated (5% CO2, 37° C.) for an additional 24 hrs.
Day 2, RNA Isolation and cDNA Synthesis: The cells are washed with 1× Phosphate Buffered Saline (PBS) once.
(§5) Day 3, Quantitative PCR Based Measurement of HCV RNA (Taqman Assay): Quantitative PCR analysis to measure HCV RNA expression from cDNA synthesized on Day 2 is performed using the ABI 9700 HT Sequence Detection System (Applied Biosystems) as previously described (Lohman et al, Science 285, 110-113, 1999). The data is analyzed and IC50s are determined using GraphPad Prism 4 software. Hits validated in the Replicon RNA Assay have IC50s<8.0 μM and show <30% inhibition of Cell Viability at a compound concentration of 50 μM (Cell Titer Glow Assay, cell viability assay conditions identical to HCV Replicon RNA Assay conditions).

Huh-Luc-Neo cells = test: Cell Titer-Glo Cell Viability Assay; assay type: cell-based, human; settings: for Toxicity % Inhibition at 50 μM (2 doses): inhibition of cell viability at 50 μM, conditions identical to HCV Replicon RNA Assay; for Toxicity % Inhibition at 100 μM (1 dose): inhibition of cell viability at 100 μM, conditions identical to HCV Replicon Luciferase Assay (48 h)
Description: as §4, §5
Day 0, Cell Seeding and Compound Treatment: Huh-Luc-Neo Cells are seeded at 25,000/well in an opaque-walled 96 plate with Growth Medium (DMEM phenol red free+PS+2 mM glutamine; 100 ul/well).
Day 2, Reagent Preparation and Assay: The CellTiter-Glo Buffer is thawed and equilibrated to room temperature prior to use. The lyophilized CellTiter-Glo Substrate is equilibrated to room temperature prior to use. 10 ml of CellTiter-Glo Buffer is transferred to 1 vial of CellTiter-Glo Substrate and mixed by gently with a Vortex. 100 μl of CellTiter-Glo Assay reagent (CellTiter-Glo Buffer+CellTiter-Glo Substrate Mixture) is added to each well. The well contents are mixed for 5 min. on an orbital shaker at room temperature to induce cell lysis and the luminescence is then measured using a luminometer.

Row | SMILES | IC50 ([1]; Hepatitis C virus) [µM] | IC50 ([2]; Hepatitis C virus, 48 h) [µM] | Toxicity % Inhibition at 50 μM (2 doses) (Huh-Luc-Neo cells) [%] | Toxicity % Inhibition at 100 μM (1 dose) (Huh-Luc-Neo cells) | IC50 [2] [µM] | IC50 [1] [µM]
1 | Cc1ccc(O)c(-c2nn(C)cc2C#CC2=CCCCC2)c1 [VQ_23307] | 7.25 | 8.1 | 14.8 | 44.8% |  | 
2 | Cc1ccc(O)c(-c2nn(C)cc2C#CC(C)(C)C)c1 [VQ_23310] | 7.21 | 1.15 | 7.1 | 33.3% |  | 
3 | COc1ccc(C#Cc2cn(C)nc2-c2cc(Cl)ccc2O)cc1 [VQ_23317] | 4.37 | 2.7 | 2.1 | 10.7% |  | 
4 | Cn1cc(C#CC(C)(C)C)c(-c2cc(Cl)ccc2O)n1 [VQ_23322] | 2 | 2.47 | 1.5 | 21.5% |  | 
5 | CCCCCC#Cc1cn(C)nc1-c1cc(Cl)ccc1O [VQ_23324] | 5.51 | 0.03 | 8.8 | 39.8% |  | 
6 | COc1ccc(C#Cc2cn(C)nc2-c2cc(Cl)c(C)cc2O)cc1 [VQ_23374] | 3.92 | 5.7 | 13.0 | 19.1% |  | 
7 | COCC#Cc1cn(C)nc1-c1cc(Cl)c(C)cc1O [VQ_23382] |  | 3.03 |  | 18.5% and 16.2% | 2.26 | 
8 | Cn1cc(C#CCC2CCCCC2)c(-c2ccccc2O)n1 [VQ_23705] | 6.47 | 1.1 | 14.7 | 26.4% |  | 
9 | Cn1cc(C#Cc2ccc(N)cc2)c(-c2ccccc2O)n1 [VQ_23708] | 0.55 | 0.7 | 21.8 | 63.8% |  | 
10 | Cc1ccc(O)c(-c2nn(C)cc2C#Cc2ccc(N)cc2)c1 [VQ_23714] | 1.16 | 0.1 | 33.4 | 31.5% |  | 
11 | Cn1cc(C#Cc2ccc(N)cc2)c(-c2cc(Cl)ccc2O)n1 [VQ_23720] | 1.28 | 0.3 | 32.6 | 49.2% |  | 
12 | Cc1cc(O)c(-c2nn(C)cc2C#CCCCC#N)cc1Cl [VQ_24691] | 5.13 | 0.09 | 28.3 | 21.1% |  | 
13 | Cn1nc(-c2ccccc2O)c(C#CCCCC#N)c1-c1ccccc1 [VQ_30716] | 3.96 | 0.11 | 6.8 | 13.7% |  | 
14 | Cn1cc(C#CC(C)(C)C)c(-c2cc([N+](=O)[O-])ccc2OCc2c(F)cccc2F)n1 [VQ_33518] | 1.85 | 0.42 | 22.8 | 40.4% |  | 
15 | Cn1cc(CCC(C)(C)C)c(-c2cc(NC(=O)c3cccc(Cl)c3F)ccc2O)n1 [VQ_34072] | 2.87 | 1.09 | 6.2 | 4.2% |  | 
16 | COc1ccc(O)c(-c2nn(C)cc2C#CC(C)(C)C)c1 [VQ_34145] | 1.87 | 0.82 | 13.1 | 19.8% |  | 
17 | Cn1nc(-c2cc(Br)ccc2O)c(C#CC(C)(C)C)c1C#CCCCC#N [VQ_34298] | 5.5 | 3.86 | 23.9 | 18.3% |  | 
18 | CCCCCCNc1ccc([N+](=O)[O-])cc1-c1nn(C)cc1C#CC(C)(C)C [VQ_36663] |  | 0.75 | 23.8 | 15.5% |  | 
19 | COc1ccc(S(=O)(=O)Nc2ccc([N+](=O)[O-])cc2-c2nn(C)cc2C#CC(C)(C)C)cc1 [VQ_36877] | 0.2 |  |  | 10.9% |  | 
20 | Cn1cc(C#CC(C)(C)C)c(-c2cc([N+](=O)[O-])ccc2NCc2ccccc2C#N)n1 [VQ_36885] | 0.03 |  |  | 35.7% |  | 
21 | Cn1cc(C#CC(C)(C)C)c(-c2cc([N+](=O)[O-])ccc2NCc2c(Cl)cccc2Cl)n1 [VQ_36886] | 0.19 |  |  | 12.6% |  | 
22 | Cn1cc(C#CC(C)(C)C)c(-c2cc([N+](=O)[O-])ccc2NCc2c(F)c(F)cc(F)c2F)n1 [VQ_36887] | 0.06 |  |  | 18.7% |  | 
23 | Cn1cc(C#CC(C)(C)C)c(-c2cc([N+](=O)[O-])ccc2NCc2ccc(I)cc2)n1 [VQ_36893] | 0.09 |  |  | 16.6% |  | 
24 | Cn1cc(C#CC(C)(C)C)c(-c2cc([N+](=O)[O-])ccc2NCc2c(F)c(F)c(F)c(F)c2F)n1 [VQ_36894] | 0.12 |  |  | 12.5% |  | 
25 | Cn1cc(C#CC(C)(C)C)c(-c2cc([N+](=O)[O-])ccc2NCc2cccc3ccccc23)n1 [VQ_36895] | 0.1 |  |  | 10.4% |  | 
26 | Cn1cc(C#CC(C)(C)C)c(-c2cc([N+](=O)[O-])ccc2NC(=O)c2cc(C(F)(F)F)ccc2F)n1 [VQ_36905] | 1.63 |  |  | 10.9% |  | 
27 | Cn1cc(C#CC(C)(C)C)c(-c2cc([N+](=O)[O-])ccc2NC(=O)c2ccccc2C(F)(F)F)n1 [VQ_36906] | 2.69 |  |  | 14.0% |  | 
28 | Cn1cc(C#CC(C)(C)C)c(-c2cc([N+](=O)[O-])ccc2NC(=O)COc2ccccc2)n1 [VQ_36907] |  |  |  | 34.7% |  | 0.2
29 | Cn1cc(C#CC(C)(C)C)c(-c2cc([N+](=O)[O-])ccc2NC(=O)COc2ccccc2)n1 [VQ_36908] |  |  |  | 22.7% |  | 1.72
